Assays:
[1] = tested on: Tyrosine-protein kinase ABL1 (Homo sapiens), P00519 [F317I]; conditions: Compound concentration 1000.0 nM
[2] = tested on: Tyrosine-protein kinase ABL1 (Homo sapiens), P00519 [H396P]; conditions: Compound concentration 1000.0 nM
[3] = target: Tyrosine-protein kinase ABL1 (Homo sapiens) (UniProt P00519); conditions: Compound concentration 1000.0 nM
[4] = target: NUAK family SNF1-like kinase 1 (Homo sapiens) (UniProt O60285); conditions: Compound concentration 1000.0 nM
[5] = target: Tyrosine-protein kinase Blk (Homo sapiens) (UniProt P51451); conditions: Compound concentration 1000.0 nM
[6] = target: Bone morphogenetic protein receptor type-1B (Homo sapiens) (UniProt O00238); conditions: Compound concentration 1000.0 nM
[7] = target: Calcium/calmodulin-dependent protein kinase type II subunit beta (Homo sapiens) (UniProt Q13554); conditions: Compound concentration 1000.0 nM
[8] = target: Cyclin-dependent kinase 9 (Homo sapiens) (UniProt P50750); conditions: Compound concentration 1000.0 nM
[9] = target: Casein kinase I isoform gamma-2 (Homo sapiens) (UniProt P78368); conditions: Compound concentration 1000.0 nM
[10] = tested on: Epidermal growth factor receptor (Homo sapiens), P00533 [G719C]; conditions: Compound concentration 1000.0 nM
[11] = target: Ephrin type-A receptor 7 (Homo sapiens) (UniProt Q15375); conditions: Compound concentration 1000.0 nM
[12] = target: Ephrin type-A receptor 8 (Homo sapiens) (UniProt P29322); conditions: Compound concentration 1000.0 nM
[13] = target: Mitogen-activated protein kinase 6 (Homo sapiens) (UniProt Q16659); conditions: Compound concentration 1000.0 nM
[14] = target: Serine/threonine-protein kinase/endoribonuclease IRE1 (Homo sapiens) (UniProt O75460); conditions: Compound concentration 1000.0 nM
Serine/threonine-protein kinase/endoribonuclease IRE1 (Homo sapiens), sequence (O75460 19-977 limits assumed): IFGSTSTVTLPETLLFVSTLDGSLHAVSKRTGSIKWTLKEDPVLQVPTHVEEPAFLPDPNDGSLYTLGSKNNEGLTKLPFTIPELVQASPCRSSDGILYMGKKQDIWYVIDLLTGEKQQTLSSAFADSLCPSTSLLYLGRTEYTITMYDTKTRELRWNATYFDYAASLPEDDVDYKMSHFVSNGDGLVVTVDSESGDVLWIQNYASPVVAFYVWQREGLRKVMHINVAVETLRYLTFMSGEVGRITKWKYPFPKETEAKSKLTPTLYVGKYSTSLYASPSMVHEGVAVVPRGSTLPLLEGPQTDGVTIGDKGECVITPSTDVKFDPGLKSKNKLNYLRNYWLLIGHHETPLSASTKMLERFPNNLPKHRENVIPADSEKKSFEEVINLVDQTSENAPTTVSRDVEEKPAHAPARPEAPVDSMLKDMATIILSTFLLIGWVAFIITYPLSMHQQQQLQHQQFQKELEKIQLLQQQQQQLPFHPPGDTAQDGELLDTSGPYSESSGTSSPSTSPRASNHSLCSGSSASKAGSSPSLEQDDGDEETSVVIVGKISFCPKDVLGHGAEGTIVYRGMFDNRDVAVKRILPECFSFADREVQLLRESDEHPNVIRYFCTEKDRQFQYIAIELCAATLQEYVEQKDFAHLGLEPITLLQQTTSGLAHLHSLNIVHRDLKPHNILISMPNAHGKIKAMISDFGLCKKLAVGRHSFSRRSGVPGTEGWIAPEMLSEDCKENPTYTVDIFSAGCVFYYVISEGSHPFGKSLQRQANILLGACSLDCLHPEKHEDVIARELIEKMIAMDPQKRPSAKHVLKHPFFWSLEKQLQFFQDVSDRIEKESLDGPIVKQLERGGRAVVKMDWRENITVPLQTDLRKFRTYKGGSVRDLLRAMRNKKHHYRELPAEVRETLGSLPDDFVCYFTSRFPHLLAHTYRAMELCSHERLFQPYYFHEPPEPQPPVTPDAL

[15] = target: Tyrosine-protein kinase Fgr (Homo sapiens) (UniProt P09769); conditions: Compound concentration 1000.0 nM
[16] = target: Inhibitor of nuclear factor kappa-B kinase subunit alpha (Homo sapiens) (UniProt O15111); conditions: Compound concentration 1000.0 nM
[17] = target: Mast/stem cell growth factor receptor Kit (Homo sapiens) (UniProt P10721); conditions: Compound concentration 1000.0 nM
[18] = target: LIM domain kinase 2 (Homo sapiens) (UniProt P53671); conditions: Compound concentration 1000.0 nM
[19] = target: Mitogen-activated protein kinase kinase kinase 2 (Homo sapiens) (UniProt Q9Y2U5); conditions: Compound concentration 1000.0 nM
[20] = target: Dual specificity mitogen-activated protein kinase kinase 5 (Homo sapiens) (UniProt Q13163); conditions: Compound concentration 1000.0 nM
Dual specificity mitogen-activated protein kinase kinase 5 (Homo sapiens), sequence (Q13163 whole entry): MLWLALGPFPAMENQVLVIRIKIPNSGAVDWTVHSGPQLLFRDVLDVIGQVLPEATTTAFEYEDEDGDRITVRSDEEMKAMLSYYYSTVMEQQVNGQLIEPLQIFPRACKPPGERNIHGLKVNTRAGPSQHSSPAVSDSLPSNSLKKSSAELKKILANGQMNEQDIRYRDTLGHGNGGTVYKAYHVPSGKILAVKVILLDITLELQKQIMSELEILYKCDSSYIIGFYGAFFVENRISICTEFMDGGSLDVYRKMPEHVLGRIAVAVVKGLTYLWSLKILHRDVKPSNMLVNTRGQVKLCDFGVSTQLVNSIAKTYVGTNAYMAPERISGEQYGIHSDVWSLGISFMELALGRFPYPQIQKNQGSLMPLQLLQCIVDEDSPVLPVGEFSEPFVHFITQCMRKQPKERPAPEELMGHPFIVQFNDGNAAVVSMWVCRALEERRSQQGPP

[21] = target: Tyrosine-protein kinase Mer (Homo sapiens) (UniProt Q12866); conditions: Compound concentration 1000.0 nM
[22] = target: Serine/threonine-protein kinase 24 (Homo sapiens) (UniProt Q9Y6E0); conditions: Compound concentration 1000.0 nM
[23] = target: Serine/threonine-protein kinase PAK 5 (Homo sapiens) (UniProt Q9P286); conditions: Compound concentration 1000.0 nM
[24] = target: Phosphatidylinositol 4,5-bisphosphate 3-kinase catalytic subunit delta isoform (Homo sapiens) (UniProt O00329); conditions: Compound concentration 1000.0 nM
[25] = target: Phosphatidylinositol 4-phosphate 5-kinase type-1 gamma (Homo sapiens) (UniProt O60331); conditions: Compound concentration 1000.0 nM
[26] = target: Serine/threonine-protein kinase PLK2 (Homo sapiens) (UniProt Q9NYY3); conditions: Compound concentration 1000.0 nM
[27] = target: Serine/threonine-protein kinase PLK4 (Homo sapiens) (UniProt O00444); conditions: Compound concentration 1000.0 nM
[28] = target: cGMP-dependent protein kinase 2 (Homo sapiens) (UniProt Q13237); conditions: Compound concentration 1000.0 nM
[29] = target: Proto-oncogene tyrosine-protein kinase receptor Ret (Homo sapiens) (UniProt P07949); conditions: Compound concentration 1000.0 nM
[30] = target: Serine/threonine-protein kinase RIO2 (Homo sapiens) (UniProt Q9BVS4); conditions: Compound concentration 1000.0 nM
[31] = target: Receptor-interacting serine/threonine-protein kinase 4 (Homo sapiens) (UniProt P57078); conditions: Compound concentration 1000.0 nM
[32] = target: Rho-associated protein kinase 1 (Homo sapiens) (UniProt Q13464); conditions: Compound concentration 1000.0 nM
Rho-associated protein kinase 1 (Homo sapiens), sequence (Q13464 2-1354 limits assumed): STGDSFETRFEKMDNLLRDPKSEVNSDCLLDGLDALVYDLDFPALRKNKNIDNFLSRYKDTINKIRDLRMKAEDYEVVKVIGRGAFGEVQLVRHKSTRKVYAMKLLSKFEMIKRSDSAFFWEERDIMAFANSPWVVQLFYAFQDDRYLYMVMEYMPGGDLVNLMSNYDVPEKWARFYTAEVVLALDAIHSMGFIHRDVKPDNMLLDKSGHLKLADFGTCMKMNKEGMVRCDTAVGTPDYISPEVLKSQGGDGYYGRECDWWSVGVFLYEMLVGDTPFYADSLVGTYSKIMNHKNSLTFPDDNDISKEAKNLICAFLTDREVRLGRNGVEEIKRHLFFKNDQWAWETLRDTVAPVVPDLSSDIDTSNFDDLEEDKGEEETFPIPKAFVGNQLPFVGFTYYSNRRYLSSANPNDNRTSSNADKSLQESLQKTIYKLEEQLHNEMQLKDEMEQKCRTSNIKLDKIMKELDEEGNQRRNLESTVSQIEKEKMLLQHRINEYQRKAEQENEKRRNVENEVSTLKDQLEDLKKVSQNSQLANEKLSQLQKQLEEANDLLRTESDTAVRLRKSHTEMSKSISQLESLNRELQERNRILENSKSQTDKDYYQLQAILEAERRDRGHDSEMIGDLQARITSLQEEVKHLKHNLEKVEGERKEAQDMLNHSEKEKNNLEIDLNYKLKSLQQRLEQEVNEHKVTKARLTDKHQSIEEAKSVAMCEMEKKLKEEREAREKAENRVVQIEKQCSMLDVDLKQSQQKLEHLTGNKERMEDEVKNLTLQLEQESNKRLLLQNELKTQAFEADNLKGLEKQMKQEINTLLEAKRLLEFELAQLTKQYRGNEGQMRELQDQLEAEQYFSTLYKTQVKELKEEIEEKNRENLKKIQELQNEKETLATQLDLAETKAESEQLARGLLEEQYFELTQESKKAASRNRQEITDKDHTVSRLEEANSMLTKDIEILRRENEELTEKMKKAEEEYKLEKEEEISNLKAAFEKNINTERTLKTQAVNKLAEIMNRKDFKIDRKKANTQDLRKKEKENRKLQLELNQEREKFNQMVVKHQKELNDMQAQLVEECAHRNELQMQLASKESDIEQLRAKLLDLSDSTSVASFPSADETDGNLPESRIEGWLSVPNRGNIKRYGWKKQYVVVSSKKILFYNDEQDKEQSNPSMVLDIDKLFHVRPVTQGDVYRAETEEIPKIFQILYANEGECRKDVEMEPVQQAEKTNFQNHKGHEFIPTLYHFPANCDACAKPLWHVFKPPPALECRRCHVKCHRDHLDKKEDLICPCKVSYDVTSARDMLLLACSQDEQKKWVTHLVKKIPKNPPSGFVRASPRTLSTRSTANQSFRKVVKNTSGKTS

[33] = target: Rho-associated protein kinase 2 (Homo sapiens) (UniProt O75116); conditions: Compound concentration 1000.0 nM
[34] = target: Ribosomal protein S6 kinase beta-1 (Homo sapiens) (UniProt P23443); conditions: Compound concentration 1000.0 nM
Ribosomal protein S6 kinase beta-1 (Homo sapiens), sequence (P23443 whole entry, looked up): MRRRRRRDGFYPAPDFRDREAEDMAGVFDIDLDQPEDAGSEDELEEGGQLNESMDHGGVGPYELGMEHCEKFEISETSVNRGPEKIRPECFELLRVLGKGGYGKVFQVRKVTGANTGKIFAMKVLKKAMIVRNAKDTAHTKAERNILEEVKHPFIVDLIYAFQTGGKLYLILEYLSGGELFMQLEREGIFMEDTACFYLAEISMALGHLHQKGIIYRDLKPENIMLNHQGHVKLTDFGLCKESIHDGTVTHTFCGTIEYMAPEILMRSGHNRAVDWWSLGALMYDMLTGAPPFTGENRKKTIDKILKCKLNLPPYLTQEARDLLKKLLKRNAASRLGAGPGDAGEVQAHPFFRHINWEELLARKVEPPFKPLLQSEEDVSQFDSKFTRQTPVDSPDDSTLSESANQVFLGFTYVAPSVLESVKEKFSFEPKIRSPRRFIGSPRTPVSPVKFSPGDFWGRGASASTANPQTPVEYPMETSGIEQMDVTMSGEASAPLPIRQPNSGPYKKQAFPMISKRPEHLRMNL

[35] = target: Serine/threonine-protein kinase Sgk2 (Homo sapiens) (UniProt Q9HBY8); conditions: Compound concentration 1000.0 nM
[36] = target: Serine/threonine-protein kinase SIK1 (Homo sapiens) (UniProt P57059); conditions: Compound concentration 1000.0 nM
[37] = target: NUAK family SNF1-like kinase 2 (Homo sapiens) (UniProt Q9H093); conditions: Compound concentration 1000.0 nM
NUAK family SNF1-like kinase 2 (Homo sapiens), sequence (Q9H093 whole entry): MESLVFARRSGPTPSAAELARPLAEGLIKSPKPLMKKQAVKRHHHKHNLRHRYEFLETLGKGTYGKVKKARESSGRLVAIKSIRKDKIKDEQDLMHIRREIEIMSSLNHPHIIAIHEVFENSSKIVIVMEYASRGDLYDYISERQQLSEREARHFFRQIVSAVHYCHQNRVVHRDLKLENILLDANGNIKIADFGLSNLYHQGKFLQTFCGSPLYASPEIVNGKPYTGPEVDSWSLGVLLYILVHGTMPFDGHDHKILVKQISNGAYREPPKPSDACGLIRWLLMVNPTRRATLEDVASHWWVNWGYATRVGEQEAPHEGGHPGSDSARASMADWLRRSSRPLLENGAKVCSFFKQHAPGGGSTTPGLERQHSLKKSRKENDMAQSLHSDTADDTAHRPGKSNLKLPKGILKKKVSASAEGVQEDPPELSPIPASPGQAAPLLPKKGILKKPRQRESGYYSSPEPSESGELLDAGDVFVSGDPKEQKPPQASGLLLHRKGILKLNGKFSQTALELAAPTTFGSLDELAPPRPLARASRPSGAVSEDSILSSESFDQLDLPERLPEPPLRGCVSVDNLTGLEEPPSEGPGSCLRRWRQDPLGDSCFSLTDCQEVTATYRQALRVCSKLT

[38] = target: Tyrosine-protein kinase Srms (Homo sapiens) (UniProt Q9H3Y6); conditions: Compound concentration 1000.0 nM
Tyrosine-protein kinase Srms (Homo sapiens), sequence (Q9H3Y6 whole entry): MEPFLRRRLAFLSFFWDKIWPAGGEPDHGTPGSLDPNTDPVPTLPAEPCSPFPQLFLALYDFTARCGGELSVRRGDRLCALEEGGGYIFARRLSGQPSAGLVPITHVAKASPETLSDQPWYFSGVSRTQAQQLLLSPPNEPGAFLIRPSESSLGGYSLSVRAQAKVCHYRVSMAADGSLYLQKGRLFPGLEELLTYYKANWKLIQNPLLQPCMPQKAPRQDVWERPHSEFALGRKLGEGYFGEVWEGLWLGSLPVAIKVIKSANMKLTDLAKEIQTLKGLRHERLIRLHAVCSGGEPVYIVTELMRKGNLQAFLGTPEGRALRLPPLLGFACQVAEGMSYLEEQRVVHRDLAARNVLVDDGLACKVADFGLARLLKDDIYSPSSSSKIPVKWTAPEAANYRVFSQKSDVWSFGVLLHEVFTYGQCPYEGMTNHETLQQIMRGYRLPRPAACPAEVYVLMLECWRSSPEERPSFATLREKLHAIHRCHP

[39] = target: Serine/threonine-protein kinase TAO1 (Homo sapiens) (UniProt Q7L7X3); conditions: Compound concentration 1000.0 nM
[40] = target: Non-receptor tyrosine-protein kinase TNK1 (Homo sapiens) (UniProt Q13470); conditions: Compound concentration 1000.0 nM
[41] = target: Vascular endothelial growth factor receptor 2 (Homo sapiens) (UniProt P35968); conditions: Compound concentration 1000.0 nM
[42] = target: Tyrosine-protein kinase ZAP-70 (Homo sapiens) (UniProt P43403); conditions: Compound concentration 1000.0 nM
[43] = target: D(3) dopamine receptor (Homo sapiens) (UniProt P35462); conditions: Compound concentration 10.0 uM
[44] = target: Beta-2 adrenergic receptor (Homo sapiens) (UniProt P07550); conditions: Compound concentration 10.0 uM
[45] = target: Muscarinic acetylcholine receptor M4 (Homo sapiens) (UniProt P08173); conditions: Compound concentration 10.0 uM
Muscarinic acetylcholine receptor M4 (Homo sapiens), sequence (P08173 whole entry): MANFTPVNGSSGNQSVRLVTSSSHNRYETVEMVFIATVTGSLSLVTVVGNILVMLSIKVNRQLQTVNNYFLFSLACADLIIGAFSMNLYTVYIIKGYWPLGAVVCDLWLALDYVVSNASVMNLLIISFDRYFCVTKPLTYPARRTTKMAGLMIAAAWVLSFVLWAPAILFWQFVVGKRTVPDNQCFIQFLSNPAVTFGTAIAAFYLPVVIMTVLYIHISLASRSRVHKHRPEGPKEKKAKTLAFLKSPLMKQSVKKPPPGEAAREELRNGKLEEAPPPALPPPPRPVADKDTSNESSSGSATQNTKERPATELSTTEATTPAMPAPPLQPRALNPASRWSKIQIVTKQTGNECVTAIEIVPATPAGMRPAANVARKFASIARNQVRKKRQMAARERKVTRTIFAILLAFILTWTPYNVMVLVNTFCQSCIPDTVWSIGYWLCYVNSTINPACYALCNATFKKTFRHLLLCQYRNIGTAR

COc1ccc2c(O[C@@H]3C[C@H]4C(=O)N[C@]5(C(=O)O)CC5/C=C\CCCCC[C@H](NC(=O)OC5CCCC5)C(=O)N4C3)cc(-c3csc(NC(=O)C(C)C)n3)nc2c1C (stereo not given in full) [BI 1230]
inactive: residual activity [1] 76% | residual activity [2] 77% | residual activity [3] 93% | residual activity [4] 92% | residual activity [5] 97% | residual activity [6] 77% | residual activity [7] 100% | residual activity [8] 83% | residual activity [9] 90% | residual activity [10] 76% | residual activity [11] 100% | residual activity [12] 100% | residual activity [13] 93% | residual activity [14] 79% | residual activity [15] 100% | residual activity [16] 92% | residual activity [17] 100% | residual activity [18] 100% | residual activity [19] 100% | residual activity [20] 71% | residual activity [21] 70% | residual activity [22] 100% | residual activity [23] 100% | residual activity [24] 100% | residual activity [25] 100% | residual activity [26] 69% | residual activity [27] 77% | residual activity [28] 84% | residual activity [29] 91% | residual activity [30] 100% | residual activity [31] 65% | residual activity [32] 98% | residual activity [33] 95% | residual activity [34] 93% | residual activity [35] 87% | residual activity [36] 100% | residual activity [37] 91% | residual activity [38] 98% | residual activity [39] 96% | residual activity [40] 100% | residual activity [41] 83% | residual activity [42] 100% | inhibition [43] -9.2% | inhibition [44] 24.6% | inhibition [45] 10.2%

O=C(N[C@H]1CCCCC/C=C\C2C[C@@]2(C(=O)O)NC(=O)[C@@H]2C[C@@H](Oc3ccncc3)CN2C1=O)OC1CCCC1 (stereo not given in full) [BI 1675]
inactive: residual activity [1] 96% | residual activity [2] 81% | residual activity [3] 97% | residual activity [4] 99% | residual activity [5] 63% | residual activity [6] 95% | residual activity [7] 99% | residual activity [8] 91% | residual activity [9] 63% | residual activity [10] 59% | residual activity [11] 100% | residual activity [12] 100% | residual activity [13] 92% | residual activity [14] 80% | residual activity [15] 100% | residual activity [16] 100% | residual activity [17] 91% | residual activity [18] 93% | residual activity [19] 69% | residual activity [20] 89% | residual activity [21] 64% | residual activity [22] 81% | residual activity [23] 83% | residual activity [24] 92% | residual activity [25] 100% | residual activity [26] 93% | residual activity [27] 88% | residual activity [28] 88% | residual activity [29] 94% | residual activity [30] 100% | residual activity [31] 94% | residual activity [32] 100% | residual activity [33] 100% | residual activity [34] 89% | residual activity [35] 100% | residual activity [36] 83% | residual activity [37] 100% | residual activity [38] 100% | residual activity [39] 100% | residual activity [40] 100% | residual activity [41] 100% | residual activity [42] 96% | inhibition [43] 12.7% | inhibition [44] 12.8% | inhibition [45] 9.48%

From ChEMBL document CHEMBL4507284, “Data for DCP probe BI-1230” (2021)
